In PubChem BioAssay AID1963429 (Molecular Pharmacology Branch, DTP, NCI, 2024):

System: 126254-015-R-J1-PDC complex spheroid growth, % test/control
Assay: Anticancer human tumor 126254-015-R-J1-PDC patient-derived soft tissue sarcoma cell line growth inhibition [Asc]
Conditions: for IC50: curve of first compound; for viability, T/C: stronger effect = lower value
Outline: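 Concentration series start at each agent's clinical Cmax, or at 10 microM when none is established, and drop in half-log steps; agents are applied alone or together to complex spheroids built with HUVEC and hMSC.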

[1] = second compound 0.1 µM, first compound 0.0316 µM
[2] = second compound 0.1 µM, first compound 0.1 µM
[3] = second compound 0.1 µM, first compound 0.316 µM
[4] = second compound 0.1 µM, first compound 1 µM
[5] = second compound 0.1 µM, first compound 3.16 µM
[6] = second compound 0.1 µM, first compound 10 µM
[7] = second compound 0.316 µM, first compound 0.0316 µM
[8] = second compound 0.316 µM, first compound 0.1 µM
[9] = second compound 0.316 µM, first compound 0.316 µM
[10] = second compound 0.316 µM, first compound 1 µM
[11] = second compound 0.316 µM, first compound 3.16 µM
[12] = second compound 0.316 µM, first compound 10 µM
[13] = second compound 1 µM, first compound 0.0316 µM
[14] = second compound 1 µM, first compound 0.1 µM
[15] = second compound 1 µM, first compound 0.316 µM
[16] = second compound 1 µM, first compound 1 µM
[17] = second compound 1 µM, first compound 3.16 µM
[18] = second compound 1 µM, first compound 10 µM
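Further: spheroids exposed to compound for seven days.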
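Wherever viability, T/C is given: 100% = DMSO vehicle control wells.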

SMILES: C#Cc1c(F)ccc2cc(O)cc(-c3ncc4c(N5CC6CCC(C5)N6)nc(OCC56CCCN5CC(F)C6)nc4c3F)c12 (stereo not given) + CNC(C)C(=O)NC1CN(S(=O)(=O)c2cccc(S(=O)(=O)N3CCC4CCC(C(=O)NC(c5ccccc5)c5ccccc5)N4C(=O)C(NC(=O)C(C)NC)C3)c2)CCC2CCC(C(=O)NC(c3ccccc3)c3ccccc3)N2C1=O
- IC50 (second compound 0.01 µM): > 10 µM
- IC50 (second compound 0.0316 µM): 7.58 µM
- IC50 (second compound 0.1 µM): 3.97 µM
- IC50 (second compound 0.316 µM): 8.98 µM
- IC50 (second compound 1 µM): 0.895 µM
- viability, T/C (second compound 0.01 µM, first compound 0.0316 µM): 77.7%
- viability, T/C (second compound 0.01 µM, first compound 0.1 µM): 81.8%
- viability, T/C (second compound 0.01 µM, first compound 0.316 µM): 78.5%
- viability, T/C (second compound 0.01 µM, first compound 1 µM): 73%
- viability, T/C (second compound 0.01 µM, first compound 3.16 µM): 81.7%
- viability, T/C (second compound 0.01 µM, first compound 10 µM): 63.7%
- viability, T/C (second compound 0.0316 µM, first compound 0.0316 µM): 69.6%
- viability, T/C (second compound 0.0316 µM, first compound 0.1 µM): 69.4%
- viability, T/C (second compound 0.0316 µM, first compound 0.316 µM): 71.5%
- viability, T/C (second compound 0.0316 µM, first compound 1 µM): 64.8%
- viability, T/C (second compound 0.0316 µM, first compound 3.16 µM): 61.6%
- viability, T/C (second compound 0.0316 µM, first compound 10 µM): 46.4%
- viability, T/C [1]: 68%
- viability, T/C [2]: 62.4%
- viability, T/C [3]: 65.9%
- viability, T/C [4]: 54.1%
- viability, T/C [5]: 55.6%
- viability, T/C [6]: 40.5%
- viability, T/C [7]: 58.4%
- viability, T/C [8]: 58.7%
- viability, T/C [9]: 55.6%
- viability, T/C [10]: 58.4%
- viability, T/C [11]: 50.6%
- viability, T/C [12]: 48.1%
- viability, T/C [13]: 55.8%
- viability, T/C [14]: 49.5%
- viability, T/C [15]: 56.1%
- viability, T/C [16]: 47.8%
- viability, T/C [17]: 46.7%
- viability, T/C [18]: 40.9%

SMILES: C=CC(=O)N1CCN(c2nc(=O)n(-c3c(C)ccnc3C(C)C)c3nc(-c4c(O)cccc4F)c(F)cc23)C(C)C1 (stereo not given) + Cc1c(S(C)(=O)=O)c(-c2cc(F)cc(N3CCN(c4ccc(NS(=O)(=O)c5ccc(NC(CCN6CCC(C(=O)OCCCP(=O)(O)O)CC6)CSc6ccccc6)c(S(=O)(=O)C(F)(F)F)c5)cc4)CC3)c2)c(-c2ccc(Cl)cc2)n1C(C)C
- IC50 (second compound 0.1 µM): > 10 µM
- IC50 (second compound 0.316 µM): > 10 µM
- IC50 (second compound 1 µM): > 10 µM
- IC50 (second compound 3.16 µM): > 10 µM
- IC50 (second compound 10 µM): > 10 µM
- viability, T/C [1]: 89.8%
- viability, T/C [2]: 89.4%
- viability, T/C [3]: 95.8%
- viability, T/C [4]: 103%
- viability, T/C [5]: 101%
- viability, T/C [6]: 76.3%
- viability, T/C [7]: 90.5%
- viability, T/C [8]: 86.2%
- viability, T/C [9]: 96.5%
- viability, T/C [10]: 91.2%
- viability, T/C [11]: 107%
- viability, T/C [12]: 84.1%
- viability, T/C [13]: 93.9%
- viability, T/C [14]: 89%
- viability, T/C [15]: 91.2%
- viability, T/C [16]: 93%
- viability, T/C [17]: 92.8%
- viability, T/C [18]: 77.6%
- viability, T/C (second compound 3.16 µM, first compound 0.0316 µM): 83.8%
- viability, T/C (second compound 3.16 µM, first compound 0.1 µM): 91.5%
- viability, T/C (second compound 3.16 µM, first compound 0.316 µM): 90.9%
- viability, T/C (second compound 3.16 µM, first compound 1 µM): 93.2%
- viability, T/C (second compound 3.16 µM, first compound 3.16 µM): 101%
- viability, T/C (second compound 3.16 µM, first compound 10 µM): 78.1%
- viability, T/C (second compound 10 µM, first compound 0.0316 µM): 91.3%
- viability, T/C (second compound 10 µM, first compound 0.1 µM): 94.1%
- viability, T/C (second compound 10 µM, first compound 0.316 µM): 105%
- viability, T/C (second compound 10 µM, first compound 1 µM): 87%
- viability, T/C (second compound 10 µM, first compound 3.16 µM): 91.7%
- viability, T/C (second compound 10 µM, first compound 10 µM): 81.6%

SMILES: CCN1CCN(Cc2ccc(Nc3ncc(F)c(-c4cc(F)c5nc(C)n(C(C)C)c5c4)n3)nc2)CC1 + CCN1C(C(=O)NC23CCC(C(=O)O)(CC2)CC3)C(c2cccc(Cl)c2F)C2(C(=O)Nc3cc(Cl)ccc32)C12CCCCC2
- IC50 (second compound 0.03 µM): > 1 µM
- IC50 (second compound 0.0949 µM): > 1 µM
- IC50 (second compound 0.3 µM): > 1 µM
- IC50 (second compound 0.949 µM): > 1 µM
- IC50 (second compound 3 µM): > 1 µM
- viability, T/C (second compound 0.03 µM, first compound 0.00316 µM): 87.6%
- viability, T/C (second compound 0.03 µM, first compound 0.01 µM): 93.2%
- viability, T/C (second compound 0.03 µM, first compound 0.0316 µM): 99.5%
- viability, T/C (second compound 0.03 µM, first compound 0.1 µM): 91.3%
- viability, T/C (second compound 0.03 µM, first compound 0.316 µM): 105%
- viability, T/C (second compound 0.03 µM, first compound 1 µM): 109%
- viability, T/C (second compound 0.0949 µM, first compound 0.00316 µM): 91.2%
- viability, T/C (second compound 0.0949 µM, first compound 0.01 µM): 94.9%
- viability, T/C (second compound 0.0949 µM, first compound 0.0316 µM): 97%
- viability, T/C (second compound 0.0949 µM, first compound 0.1 µM): 102%
- viability, T/C (second compound 0.0949 µM, first compound 0.316 µM): 91.3%
- viability, T/C (second compound 0.0949 µM, first compound 1 µM): 109%
- viability, T/C (second compound 0.3 µM, first compound 0.00316 µM): 89%
- viability, T/C (second compound 0.3 µM, first compound 0.01 µM): 96.9%
- viability, T/C (second compound 0.3 µM, first compound 0.0316 µM): 96.6%
- viability, T/C (second compound 0.3 µM, first compound 0.1 µM): 89.8%
- viability, T/C (second compound 0.3 µM, first compound 0.316 µM): 101%
- viability, T/C (second compound 0.3 µM, first compound 1 µM): 105%
- viability, T/C (second compound 0.949 µM, first compound 0.00316 µM): 99.5%
- viability, T/C (second compound 0.949 µM, first compound 0.01 µM): 98.3%
- viability, T/C (second compound 0.949 µM, first compound 0.0316 µM): 92.2%
- viability, T/C (second compound 0.949 µM, first compound 0.1 µM): 88.8%
- viability, T/C (second compound 0.949 µM, first compound 0.316 µM): 122%
- viability, T/C (second compound 0.949 µM, first compound 1 µM): 113%
- viability, T/C (second compound 3 µM, first compound 0.00316 µM): 96.1%
- viability, T/C (second compound 3 µM, first compound 0.01 µM): 93.8%
- viability, T/C (second compound 3 µM, first compound 0.0316 µM): 96.3%
- viability, T/C (second compound 3 µM, first compound 0.1 µM): 94.7%
- viability, T/C (second compound 3 µM, first compound 0.316 µM): 106%
- viability, T/C (second compound 3 µM, first compound 1 µM): 104%
